{"source": "patent US20220125893A1", "about": "“METHODS FOR TREATING ARTHRITIS USING SPL-108 PEPTIDE” (Splash Pharmaceuticals, Inc., priority 2019, published 2022)", "key": {"[1]": {"test_system": "fibroblast-like synoviocytes (FLSs)", "experiment": "In vitro Scratch migration assay of FLSs", "type": "cell-based", "conditions": "0.1, 1.0, 10.0, 100 μM", "method": "Cells were grown to confluence and a thin “wound” was introduced by scratching with a pipette tip. Cells at the wound edge polarize and migrate into the wound space."}, "[2]": {"test_system": "fibroblast-like synoviocytes (FLSs)", "experiment": "In vitro Matrigel invasion assay of FLSs", "type": "cell-based", "conditions": "0.1, 1.0, 10.0, 100 μM; presence and absence of PDGF 10 ng/mL", "method": "FIG. 8A and FIG. 8B show the effects of SPL-108 (A6) on the invasion of FLSs using an in vitro Matrigel invasion assay. Platelet-derived growth factor (10 ng/mL) was used to stimulate invasion and the area of invasion was measured in […] before and after the addition of 0.1, 1.0, 10.0, and 100 μM SPL-108 (A6) in the presence and absence of PDGF."}, "CIA mice": {"test_system": "CIA mice", "experiment": "Collagen-induced arthritis (CIA) mouse model", "type": "in vivo", "text": "FIGS. 10A, 10B, 10C, 10D, and 10E show histology and histological scores in ankles collected at the end of the experiments. At the end of the experiment, ankle bones were collected and decalcified in EDTA for 10 days. Decalcified bones were embedded and sagittal sections obtained and stained. H&E staining was used to help score cell infiltration, synovial thickness, and bone damage (FIG. 10A). In the figure, safranin staining will help to score cartilage damage. Black arrows show infiltration in arthritic mice treated with PBS compared to control mice without arthritis. White arrows show lack of safranin staining in the arthritic mice cartilage because of proteoglycan degradation compared to control mice without arthritis.\nIn the examples below, mice were used in a collagen-induced arthritis (CIA) model, a commonly used model to examine pathogenesis of rheumatoid arthritis. […] At day 0, mice were immunized with type II collagen/CFA. […] Arthritis onset subsequently occurs 4-10 days after the day 28 LPS injection. The experimental groups consisted of four groups: group 1: 6 CIA mice treated with vehicle; group 2: 6 CIA mice treated with […] SPL-108 twice a day, starting at arthritis onset (between day 32 to 36); group 3: 6 CIA mice treated with 100 mg/kg SPL-108 twice a day, starting at arthritis onset (between day 32 to 36); and group 4: 6 mice without CIA and not treated (negative control). In preventive strategies, a prophylactic treatment of SPL-108 would be started at day 0, at the time of first immunization.\nFIGS. 10A, 10B, 10C, 10D, and 10E show histological scores of ankle bones collected at the end of experiments. At the end of the experiment, ankles were collected and decalcified in EDTA for 10 days. They were embedded and sagittal sections were obtained and stained. H&E staining was used to help score cell infiltration, synovial thickness, and bone damage. In the figure, safranin staining will help to score cartilage damage. Black arrows show infiltration in arthritic mice treated with PBS compared to control mice without arthritis. White arrows show lack of safranin staining (red) in the arthritic mice cartilage because of proteoglycan degradation compared to control mice without arthritis."}, "[3]": {"test_system": "pre-existing osteoarthritis", "experiment": "Osteoarthritis symptoms in ovarian cancer patients on SPL-108 plus paclitaxel", "type": "in vivo, human", "conditions": "two patients; SPL-108 150 mg twice a day with paclitaxel 80 mg/m^2 weekly on Days 1, 8, 15, three 28-day cycles", "method": "Two patients diagnosed with […] ovarian cancer, and enrolled in a clinical trial for evaluating the efficacy of SPL-108 in combination with paclitaxel (standard-of-care treatment), reported relief from symptoms of pre-existing osteoarthritis. Each patient received SPL-108 150 mg twice a day and Paclitaxel 80 mg/m^2 weekly on Days 1, 8, and 15, in three 28-day cycles. Each patient received a total of 25,200 mg of SPL-108 over the course of treatment."}, "[4]": {"test_system": "arthritis-induced osteoclastogenesis", "conditions": "other animal studies; cited from earlier work"}, "[5]": {"conditions": "ankles at end of experiment, H&E staining"}, "[6]": {"conditions": "either dose (50 or 100 mg/kg twice a day)"}}}
{"substance": "Ac-KPSSPPEE-NH2 [SPL-108]", "values": [{"measurement": "migration of FLSs into wound space", "setting": "[1]", "value": "inhibited the migration of FLSs in a dose-dependent manner"}, {"measurement": "invasion of FLSs (area of invasion)", "setting": "[2]", "value": "inhibited the invasion of FLSs in a dose-dependent manner"}, {"measurement": "clinical score vs vehicle, significance", "setting": "CIA mice; 50 mg/kg twice a day", "value": "significantly different at day 4, 5, 6, 7"}, {"measurement": "paw swelling vs vehicle, significance", "setting": "CIA mice; 50 mg/kg twice a day", "value": "significantly different from day 11 to day 19"}, {"measurement": "body weight vs vehicle, significance", "setting": "CIA mice; 50 mg/kg twice a day from arthritis onset", "value": "significantly different at day 7 and 9"}, {"measurement": "clinical score vs vehicle, significance", "setting": "CIA mice; 100 mg/kg twice a day", "value": "significantly different from day 4 to day 20"}, {"measurement": "paw swelling vs vehicle, significance", "setting": "CIA mice; 100 mg/kg twice a day", "value": "significantly different from day 11 to day 19"}, {"measurement": "body weight vs vehicle, significance", "setting": "CIA mice; 100 mg/kg twice a day from arthritis onset", "value": "significantly different at day 5, 7, 9 and 11"}, {"measurement": "body weight decrease", "setting": "CIA mice; CIA mice, through 11 days after disease onset, vehicle 3 grams decrease", "value": "~1", "unit": "gram"}, {"measurement": "bone damage (histological score)", "setting": "CIA mice; [5]", "value": "reduction"}, {"measurement": "synovial hypertrophy (histological score)", "setting": "CIA mice; [5]", "value": "reduction"}, {"measurement": "synovial infiltration (histological score)", "setting": "CIA mice; [5]", "value": "reduction"}, {"measurement": "cartilage damage (histological score)", "setting": "CIA mice; ankles at end of experiment, safranin staining", "value": "reduction"}, {"measurement": "clinical score compared to vehicle", "setting": "CIA mice; [6]", "value": "lower"}, {"measurement": "paw swelling (paw size) compared to vehicle", "setting": "CIA mice; [6]", "value": "lower"}, {"measurement": "improvement in osteoarthritis symptoms", "setting": "[3]", "value": "reduction to elimination of joint pain"}, {"measurement": "arthritis-induced osteoclastogenesis", "setting": "[4]", "value": "inhibited arthritis-induced osteoclastogenesis"}]}
